In article PMC6855212, “Antibacterial activity of synthetic 1,3‐bis(aryloxy)propan‐2‐amines against Gram‐positive bacteria” (MicrobiologyOpen, 2019):
In brackets after ≈: the same amount, converted by molar mass. Several values for one entry are separate records, joined by “and”; a condition that tells them apart may be missing. Equal values may be shown once. Read-outs that look alike come from different tables or passages of the source.

Assays:
MRSA Strain 5749 [1] = experiment: MIC, broth microdilution; format: cell-based; conditions: Staphylococcus aureus, clinical strain, read-out: MIC MRSA Strain 5749
Method: (§1) The antibacterial activity of the compounds was evaluated using the broth microdilution method in 96‐well microplates according to the Clinical and Laboratory Standards Institute protocol (CLSI, 2017). First, synthetic compounds were diluted in Mueller Hinton broth (MHB; Oxoid, Thermo Scientific, UK) to concentrations ranging from 20 to 2.5 μg/ml. The same volume of a bacterial suspension containing 10^5 CFU/ml was added to each of the previous solutions, resulting in final compound concentrations from 10 to 1.25 μg/ml. […] All conditions were tested in triplicate and the results shown are representative of three independent assays.

MRSA Strain 5912 [2] = experiment: MIC, broth microdilution; format: cell-based; conditions: Staphylococcus aureus, clinical strain, read-out: MIC MRSA Strain 5912
Method: as §1

MRSA Strain 6154 [3] = experiment: MIC, broth microdilution; format: cell-based; conditions: Staphylococcus aureus, clinical strain, read-out: MIC MRSA Strain 6154
Method: as §1

MRSA Strain 6613 [4] = experiment: MIC, broth microdilution; format: cell-based; conditions: Staphylococcus aureus, clinical strain, read-out: MIC MRSA Strain 6613
Method: as §1

[5] = tested on: Staphylococcus aureus ATCC 29212; experiment: MIC, broth microdilution; format: cell-based; conditions: for MIC: Staphylococcus aureus, ATCC29212; for Antibacterial activity in initial screening, S. aureus: concentration of 10 μg/ml
Method: as §1

[6] = tested on: Streptococcus pyogenes ATCC 19615; experiment: MIC, broth microdilution; format: cell-based; conditions: for MIC: Streptococcus pyogenes, ATCC19615; for Antibacterial activity in initial screening, S. pyogenes: concentration of 10 μg/ml
Method: as §1

MRSA Strain 5749 [7] = experiment: MBC, plating of wells without growth; format: cell-based; conditions: Staphylococcus aureus
Method: (§2) After incubation at 35°C for 24 hr, the colonies were counted and the percentage of inhibition was calculated. MBC is defined as the lowest compound's concentration that inhibits at least 99.9% of the bacterial cell count compared to nontreated viability control (Clinical and Laboratory Standards Institute, 1999).

MRSA Strain 5912 [8] = experiment: MBC, plating of wells without growth; format: cell-based; conditions: Staphylococcus aureus
Method: as §2

MRSA Strain 6154 [9] = experiment: MBC, plating of wells without growth; format: cell-based; conditions: Staphylococcus aureus
Method: as §2

MRSA Strain 6613 [10] = experiment: MBC, plating of wells without growth; format: cell-based; conditions: Staphylococcus aureus
Method: as §2

S. aureus ATCC 29212 = experiment: MBC, plating of wells without growth; format: cell-based; conditions: Staphylococcus aureus, ATCC29212; at least 99.9% inhibition of cell count
Method: as §2

S. pyogenes ATCC 19615 = experiment: MBC, plating of wells without growth; format: cell-based; conditions: Streptococcus pyogenes, ATCC19615; at least 99.9% inhibition of cell count
Method: as §2

[11] = Cytotoxicity, MTT reduction assay; format: cell-based; conditions: African green monkey, 48 hr
Method: (§3) The cytotoxicity of active compounds to mammalian cells was assessed using the MTT reduction assay (Mosmann, 1983). Vero and BSC‐40 cells were seeded in 96‐well plates (8 × 10^4 cells per well) and incubated at 37°C and 5% CO2 atmosphere. After 24 hr of incubation, 200 μL of fresh medium containing a serial dilution of compounds (10–1.25 μg/ml) were added to the plates. After 48 hr of incubation in the same conditions, 100 μL of MTT solution in MEM or DMEM (5 mg/ml) was added to each well and incubated for 3 hr at 37°C and 5% CO2 atmosphere. The medium was removed and 100 μL of DMSO was used to solubilize formazan crystals. Absorbance at 570 nm of each well was read using a spectrophotometer (VersaMax, Molecular Devices).

MRSA strains [12] = experiment: MIC, broth microdilution, MRSA strains taken together; format: cell-based; conditions: Staphylococcus aureus; over the six MRSA strains (CPD18: four out of six); read-out: MIC against MRSA strains
Method: as §1

MRSA strains [13] = experiment: MBC, MRSA strains taken together; format: cell-based, Staphylococcus aureus; conditions: concentrations tested (up to 10 μg/ml)
Method: as §2

[14] = tested on: Gram‐positive bacteria (E. faecalis, S. aureus and S. pyogenes); experiment: MIC, broth microdilution, Gram‐positive bacteria taken together; format: cell-based; conditions: Staphylococcus aureus; over different bacterial strains, including MRSA where stated; read-out: MIC against Gram‐positive bacteria, summary
Method: as §1

[15] = tested on: Enterococcus faecalis ATCC 29213; experiment: MIC, broth microdilution; format: cell-based; conditions: for MIC: Enterococcus faecalis, ATCC29213; for Antibacterial activity in initial screening, E. faecalis: concentration of 10 μg/ml
Method: as §1

MRSA ATCC 43300 [16] = experiment: MIC, broth microdilution; format: cell-based; conditions: Staphylococcus aureus; — = no activity up to 10 μg/ml; read-out: MIC MRSA ATCC 43300
Method: as §1

MRSA Strain 6100 [17] = experiment: MIC, broth microdilution; format: cell-based; conditions: Staphylococcus aureus, clinical strain, — = no activity up to 10 μg/ml, read-out: MIC MRSA Strain 6100
Method: as §1

E. faecalis ATCC 29213 = experiment: MBC, plating of wells without growth; format: cell-based; conditions: Enterococcus faecalis, ATCC29213; at least 99.9% inhibition of cell count
Method: as §2

MRSA ATCC 43300 [18] = experiment: MBC, plating of wells without growth; format: cell-based; conditions: Staphylococcus aureus
Method: as §2

MRSA Strain 6100 [19] = experiment: MBC, plating of wells without growth; format: cell-based; conditions: Staphylococcus aureus
Method: as §2

BSC‐40 cells = experiment: Cytotoxicity, MTT reduction assay; format: cell-based; conditions: BSC‐40; bacterial strain not stated
Method: as §3

Vero cells = experiment: Cytotoxicity, MTT reduction assay; format: cell-based; conditions: bacterial strain not stated
Method: as §3

[20] = 24 hr, 35°C, read-out: MIC Staphylococcus aureus ATCC 29212
[21] = read-out: MIC against S. aureus
[22] = 24 hr, 35°C, read-out: MIC Streptococcus pyogenes ATCC 19615
[23] = read-out: MIC against S. pyogenes
[24] = BSC-40 cells, BSC‐40, MTT, read-out: CC50
[25] = BSC-40 cells, BSC‐40, MTT, read-out: CC50 ± SD
[26] = Vero cells, MTT, read-out: CC50
[27] = Vero cells, MTT, read-out: CC50 ± SD
[28] = 24 hr, 35°C, — = no activity up to 10 μg/ml, read-out: MIC Enterococcus faecalis ATCC 29213
[29] = read-out: MIC against E. faecalis

| MIC (MRSA Strain 5749 [1]) | MIC (MRSA Strain 5912 [2]) | MIC (MRSA Strain 6154 [3]) | MIC (MRSA Strain 6613 [4]) | MIC [5, 20] | MIC [5, 21] | MIC [6, 22] | MIC [6, 23] | MIC (MRSA strains [12]) | Compound | Antibacterial activity in initial screening, S. aureus [5] | Antibacterial activity in initial screening, S. pyogenes [6] | MBC (MRSA Strain 5749 [7]) | MBC (MRSA Strain 5912 [8]) | MBC (MRSA Strain 6154 [9]) | MBC (MRSA Strain 6613 [10]) | MBC (S. aureus ATCC 29212) | MBC (S. pyogenes ATCC 19615) | CC50 at 48 h [11, 25] | CC50 at 48 h [11, 26] | CC50 at 48 h [11, 27] | also measured |
| --- | --- | --- | --- | --- | --- | --- | --- | --- | --- | --- | --- | --- | --- | --- | --- | --- | --- | --- | --- | --- | --- |
| 28.7 µM (≈ 8.95 µg/mL) | 28.7 µM (≈ 8.95 µg/mL) | 28.7 µM (≈ 8.95 µg/mL) | 28.7 µM (≈ 8.95 µg/mL) | 28.7 µM | 10 µg/mL | 28.7 µM | 10 µg/mL | 10 µg/mL and 28.7 µM | NC(COc1ccc(Cl)cc1)COc1ccc(Cl)cc1 [CPD18] | showed activity | showed activity | > 28.7 µM | > 28.7 µM | > 28.7 µM | > 28.7 µM | > 28.7 µM | > 28.7 µM | 16.4 ± 0.52 µM | 5.99 ± 0.09 µg/mL | 17.2 ± 0.26 µM | CC50 at 48 h [11, 24]: 5.73 ± 0.18 µg/mL; Bactericidal activity against MRSA strains (MRSA strains [13]): no bactericidal activity was observed; MIC [14]: 10 µg/mL and 28.7 µM |
| 6.58 µM (≈ 2.26 µg/mL) | 6.58 µM (≈ 2.26 µg/mL) | 6.58 µM (≈ 2.26 µg/mL) | 6.58 µM (≈ 2.26 µg/mL) | 6.58 µM | 2.5 µg/mL | 6.58 µM | 2.5 µg/mL | 2.5 µg/mL and 6.58 µM | NC(COc1cccc2ccccc12)COc1cccc2ccccc12 [CPD20] | inhibited the growth | inhibited the growth | 6.58 µM (≈ 2.26 µg/mL) | 6.58 µM (≈ 2.26 µg/mL) | 26.3 µM (≈ 9.04 µg/mL) | 6.58 µM (≈ 2.26 µg/mL) | 26.3 µM (≈ 9.04 µg/mL) | 6.58 µM (≈ 2.26 µg/mL) | 6.58 ± 1.97 µM | 3.79 ± 0.6 µg/mL | 9.98 ± 1.58 µM | MIC [15, 28]: 13.2 µM; MIC [15, 29]: 5 µg/mL; Antibacterial activity in initial screening, E. faecalis [15]: inhibited the growth; MIC (MRSA ATCC 43300 [16]): 6.58 µM (≈ 2.26 µg/mL); MIC (MRSA Strain 6100 [17]): 6.58 µM (≈ 2.26 µg/mL); MBC (E. faecalis ATCC 29213): 26.3 µM (≈ 9.04 µg/mL); MBC (MRSA ATCC 43300 [18]): 13.2 µM (≈ 4.52 µg/mL); MBC (MRSA Strain 6100 [19]): 6.58 µM (≈ 2.26 µg/mL); CC50 at 48 h [11, 24]: 2.5 ± 0.75 µg/mL; MIC [14]: 2.5 µg/mL to 5 µg/mL and 6.58 µM to 13.2 µM |

| Compound | MIC (MRSA Strain 5749 [1]) | MIC (MRSA Strain 5912 [2]) | MIC (MRSA Strain 6154 [3]) | MIC (MRSA Strain 6613 [4]) | MIC [5, 20] | MIC [5, 21] | MIC [6, 22] | MIC [6, 23] | MIC (MRSA strains [12]) | Antibacterial activity in initial screening, S. aureus [5] | Antibacterial activity in initial screening, S. pyogenes [6] | MBC (MRSA Strain 5749 [7]) | MBC (MRSA Strain 5912 [8]) | MBC (MRSA Strain 6154 [9]) | MBC (MRSA Strain 6613 [10]) | MBC (S. aureus ATCC 29212) | MBC (S. pyogenes ATCC 19615) | CC50 at 48 h [11, 25] | CC50 at 48 h [11, 26] | CC50 at 48 h [11, 27] | also measured |
| --- | --- | --- | --- | --- | --- | --- | --- | --- | --- | --- | --- | --- | --- | --- | --- | --- | --- | --- | --- | --- | --- |
| Cl.NC(COc1ccc(Cl)c(Cl)c1)COc1ccc(Cl)c(Cl)c1 [CPD22, 1,3‐Bis(3,4‐dichlorophenoxy)propan‐2‐aminium chloride] | 5.99 µM | 5.99 µM | 5.99 µM | 12 µM | 12 µM | 5 µg/mL | 5.99 µM | 2.5 µg/mL | 2.5 µg/mL to 5 µg/mL and 5.99 µM to 12 µM | inhibited the growth | inhibited the growth | 5.99 µM | 5.99 µM | > 23.9 µM | 12 µM | 12 µM | 23.9 µM | 10.6 ± 3.16 µM | 5.47 ± 1.89 µg/mL | 13.1 ± 4.53 µM | MIC [15, 28]: 12 µM; MIC [15, 29]: 5 µg/mL; Antibacterial activity in initial screening, E. faecalis [15]: inhibited the growth; MIC (MRSA ATCC 43300 [16]): 12 µM; MIC (MRSA Strain 6100 [17]): 5.99 µM; MBC (E. faecalis ATCC 29213): > 23.9 µM; MBC (MRSA ATCC 43300 [18]): 12 µM; MBC (MRSA Strain 6100 [19]): 23.9 µM; Selective Index (SI), higher value (BSC‐40 cells): 1.77; Selective Index (SI), higher value (Vero cells): 2.19; MIC [14]: 2.5 µg/mL to 5 µg/mL and 5.99 µM to 12 µM; melting point: 224.1 to 225.6 °C |
